Reference: US6903218B2, “Sulfonamide substituted chroman derivatives” (Bayer Pharmaceuticals Corporation, priority 1997, dated 2005)

SMILES	melting point
Nc1ccc([C@@H](O)CNC[C@H]2CCc3cc(NS(=O)(=O)c4ccc(-n5nnn(CCCC6CCCCC6)c5=O)cc4)ccc3O2)cn1	94 to 95 °C
CC(C)c1ccc(NS(=O)(=O)c2ccc3c(c2)CCC(CNC[C@H](O)c2cccnc2)O3)cc1 (stereo in doubt) (hydrate or solvate)	104 to 106 °C
O=c1n(CCCC2CCCC2)nnn1-c1ccc(NS(=O)(=O)c2ccc3c(c2)CCC(CN(C[C@H](O)c2cccc(Cl)c2)C[C@H](O)c2cccc(Cl)c2)O3)cc1 (stereo partly shown) (hydrate or solvate)	110 to 115 °C (dec.)
Nc1ccc([C@@H](O)CNCC2CCc3cc(S(=O)(=O)Nc4ccc(Cl)cc4)ccc3O2)cn1 (stereo in doubt)	95 °C (dec.)

Further lines, results first:

melting point	SMILES
99.3 to 99.7 °C	Nc1ccc([C@@H](O)CNC[C@@H]2CCc3cc(S(=O)(=O)Nc4ccc(-n5nnn(CCCC6CCCC6)c5=O)cc4)ccc3O2)cn1
90 to 92 °C	O=c1n(CCCC2CCCC2)ccn1-c1ccc(NS(=O)(=O)c2ccc3c(c2)CCC(CNC[C@H](O)c2cccnc2)O3)cc1 (stereo in doubt)
93 to 95 °C	O=c1n(CCCC2CCCC2)nnn1-c1ccc(NS(=O)(=O)c2ccc3c(c2)CCC(CNC[C@H](O)c2cccnc2)O3)cc1 (stereo partly shown) (hydrate or solvate)
